In general, Kd refers to the equilibrium constant for the complex coming apart. Low readings indicate a tighter complex, high ones a looser complex. What is called IC50 is the concentration needed to halve the response being measured. In general, inhibition refers to the relative decrease from the control value, in per cent.

Consider 16 compounds from patent US20250008959A1, “HERBICIDES AND USE THEREOF” (Projini Agchem LTD, priority 2021, published 2025).

The target in assay [1] is T1, AtOASS (O-acetyl serine sulfhydrylase from Arabidopsis thaliana) (Arabidopsis thaliana, UniProt P47998).
T1 construct: GST (N, cleaved yes); made in house; host or cells: E. coli Rosetta (DE3)
T1 sequence (P47998 whole entry): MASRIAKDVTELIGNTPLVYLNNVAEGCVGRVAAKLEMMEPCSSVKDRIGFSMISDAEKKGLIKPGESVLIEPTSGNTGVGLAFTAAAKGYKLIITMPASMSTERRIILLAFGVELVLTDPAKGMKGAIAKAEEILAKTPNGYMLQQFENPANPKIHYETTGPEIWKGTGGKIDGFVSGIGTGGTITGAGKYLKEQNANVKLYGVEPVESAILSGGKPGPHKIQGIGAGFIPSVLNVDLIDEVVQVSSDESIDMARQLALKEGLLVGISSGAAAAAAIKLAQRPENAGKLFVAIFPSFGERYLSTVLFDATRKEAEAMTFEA
In words: Isothermal titration calorimetry (ITC) binding to OASS. The note with it: OASS titrated into compound in ITC cell; single binding model. The text has this:
To evaluate the ability of the molecules to bind AtOASS (O-acetyl serine sulfhydrylase from Arabidopsis thaliana), the protein was placed in the ITC syringe and was titrated with the molecules that were placed in the ITC cell (see Examples section below). The direct dissociation binding constant (Kd) was then extracted from the binding curve using a single binding model, wherein a low Kd value corresponds to a stronger binding affinity.
To evaluate the binding of the small molecules to the enzyme OASS, the purified protein was placed in a 6-8 MWCO dialysis bag in 30 mM phosphate buffer, 30 mM NaCl, 1 mM TCEP, and 5% dimethyl sulfoxide. Sequential buffer exchange dialyses were executed for 12 hours each at 4° C. until dilution of >10,000 was achieved. Before the execution of the ITC binding experiment, the OASS was placed in the ITC syringe at a concentration of 400 μM and each of the small molecules was dissolved in the same dialysis buffer to a final concentration of 40 μM in the ITC cell. ITC experiments were conducted by titrating the OASS to the compounds in the cell. The ITC binding constant was evaluated using the build-in analysis software.
The designed de-novo herbicidal compounds were synthesized and evaluated for their in vitro and in planta activity. After dissolving the molecules to a stock of 50 mM in DMSO, binding and competition with the SAT-derived peptides were evaluated using ITC and FP. ITC measures the direct heat change occurring due to the interaction of a pair of molecules. ITC has certain advantages, such as the capability to detect a relatively broad range of binding affinities, being a label-free method, and providing a wide set of interaction parameters, such as affinity, stoichiometry, enthalpy, and entropy of binding. To evaluate the ability of the molecules to bind AtOASS, the protein was placed in the ITC syringe and was titrated with the molecules that were placed in the ITC cell. The direct dissociation binding constant (Kd) was then extracted from the binding curve using a single binding model. Two consecutive experiments were combined using the built in ITC module to enable better quantification. A low Kd value corresponds to a stronger binding affinity.

Assay [2] addresses T2, OASS-SAT complex (AtOASS with SAT-derived peptide) (Arabidopsis thaliana, UniProt P47998).
T2 construct: GST (N, cleaved yes); made in house; host or cells: E. coli Rosetta (DE3)
Put plainly: Fluorescence polarization (FP) competition with FITC-labeled SAT-derived peptide bound to OASS. The note with it: competition with FITC-SAT peptide 200 nM, OASS 2.2 μM; for IC50: single site inhibition model. The class given is binding. The protocol: Molecules were also tested for their ability to compete with the OASS binding to the SAT-derived peptide via a fluorescence polarization (FP) competition assay wherein the N-terminus labeled peptide was incubated with the AtOASS (see Examples section below). High FP values correspond to the peptide-bound state (low molecule concentrations) and low FP values correspond to the peptide-free state (low FP values). To extract the IC50, the FP data were fitted to a single site inhibition model in PRISM by GraphPad Software. The corresponding IC50 values were extracted, whereas low IC50 values correspond to molecule that better competes with the peptide binding to AtOASS. Fluorescence polarization (FP) measurements were made on samples arrayed in 96-well plates by using BioTek H1 Synergy instrument equipped with FP module. […] The peptide in a concentration of 200 nM was incubated with OASS at a concentration of 2.2 μM in each well. Variable concentrations of each molecule starting from 100 μM down to 0.048 μM were added to evaluate the ability of each molecule to compete off the FITC labeled peptide bound to OASS. Fluorescence experiments were executed with an Em/Exc wavelengths of 480/520 nm. All measurements were done in triplicate. Experimental polarization data from simple and competitive binding experiments were fitted using GraphPad Prism, with error bars representing SD. Molecules were also tested for their ability to compete with the OASS binding to the SAT-derived peptide via a fluorescence polarization (FP) competition assay. The N-terminus labeled peptide was incubated with the AtOASS in each of the wells in a 96-well plate. Various concentrations of the molecules were added and the FP values were recorded. High FP values correspond to the peptide-bound state (low molecule concentrations) and low FP values correspond to the peptide-free state (low FP values). To extract the IC50, the FP data were fitted to a single site inhibition model in graphpad prism. The corresponding IC50 values were extracted. Low IC50 values correspond to molecule that better competes with the peptide binding to AtOASS.
For orientation: In fluorescence polarisation assays a small probe gives low polarisation when free and higher when bound to something large.

A further assay has as its system Arabidopsis thaliana. In words: Root elongation in plates (in planta root elongation assay). The class given is in vivo. The note with it: 168 h, A. thaliana on MS medium plates, 7 days, read-out: Root-growth inhibition %. The protocol: 6-well plates were prepared in a biological hood with sterile half Murashige and Skoog mineral medium (MS; Duchefa, Haarlem, Netherlands) containing 1% sucrose (w/v), pH 5.8. Tested molecules were dissolved in 50 mM DMSO and diluted to various concentrations 1,000-fold greater than the final desired concentration the MS medium maintaining a final concentration of 0.1% DMSO. MS medium with 0.1% DMSO was used as a negative control. After 7 days the plates were scanned and the root length was calculated using the imageJ software. […] Further sterilization was done by washing the seeds with 50% hypochlorite and 0.2% Triton x-100 for 10 minutes followed by five cycles of washing with sterile water. Six seeds were placed in each well, and the plates were covered and sealed with parafilm. Plates were placed vertically at 4° C. for two days and then transferred to a growth chamber for seven days (22-24° C.) at day/light cycles of 16/8 hours. Following the in vitro evaluation, selected molecules were tested for their ability to inhibit A. thaliana root elongation on agar plates. Seeds were plated on medium containing the molecules dissolved in the indicated concentrations and root length was measured after 6 or 7 days when the root in the non-treated plate reached the end of the well.

T2 sequence (P47998 whole entry, one chain of several): as the sequence (P47998 whole entry) above

Take `O=C(O)c1cc2c(c(S(=O)(=O)Nc3cccc(-c4n[nH]c(C5CC5)n4)c3)c1)CCC2` [PJL-71]: in assay [1], the dissociation constant (Kd) is 6.11 µM. Also, in assay [2], the FP % inhibition is on record as 24% and the IC50 was determined as 21 µM. For the same compound, the inhibition at 50 µM with Arabidopsis thaliana was 17%.

In assay [1], `O=C(O)c1cc2c(c(S(=O)(=O)Nc3cccc(-n4cccn4)c3)c1)CCC2` [PJL-76] showed a Kd of 18.3 µM. In addition, the FP % inhibition in assay [2] was found to be 16%. Further, the inhibition at 50 µM in the assay on Arabidopsis thaliana came out at 0%.

Regarding `O=C(O)c1cc(F)ccc1NS(=O)(=O)c1cnc(-c2ccccc2)o1` [PJL-81], the Kd in assay [1] was 28 µM. In assay [2], the FP % inhibition amounted to 23% and the IC50 came out at 32 µM. Besides, the inhibition at 50 µM in the assay on Arabidopsis thaliana is 15%.

The compound `O=C(O)c1ccccc1NS(=O)(=O)c1cnc(-c2ccccc2)s1` [PJL-83] came in with a Kd in assay [1] of 9.9 µM. Besides, in assay [2], the FP % inhibition stood at 17% and the IC50 is 74 µM. Besides, in the assay with Arabidopsis thaliana, the inhibition at 50 µM worked out at 0%.

In the case of `O=C(O)c1cc(F)ccc1NS(=O)(=O)c1cnn(-c2cccc(C(F)(F)F)c2)c1` [PJL-84], the affinity in assay [1], expressed as Kd, was 10.9 µM. In addition, in assay [2], the FP % inhibition was determined as 24% and the IC50 is 44 µM. Further, the inhibition at 50 µM in the assay on Arabidopsis thaliana was 47%.

Consider `O=C(Cc1ccccc1C(=O)O)Nc1cccc(C(=O)Nc2nccs2)c1` [PJL-93], for which, in assay [1], the Kd worked out at 5.3 µM. Besides, the FP % inhibition in assay [2] is 21%. For the same compound, the inhibition at 50 µM in the assay with Arabidopsis thaliana is 0%.

`O=C(O)c1cccc(NC2=C(Cl)C(=O)N(c3ccc(Cl)c(Cl)c3)C2=O)c1` [PJL-103]: the affinity in assay [1], expressed as Kd, was 9.37 µM. For the same compound, in assay [2], the FP % inhibition was 21% and the IC50 was determined as 73 µM. Moreover, the inhibition at 50 µM with Arabidopsis thaliana is 0%.

`Cc1cc(-c2cc(NC(=O)c3ccccc3-c3ccccc3C(=O)O)[nH]n2)ccc1OCCN1CCOCC1` [PJL-106]: the Kd in assay [1] amounted to 0.94 µM. In addition, in assay [2], the FP % inhibition turned out to be 45% and the IC50 was found to be 1.9 µM. Besides, in the assay on Arabidopsis thaliana, the inhibition at 50 µM worked out at 0%.

In turn, `NCCc1ccc(-c2csc(NC(=O)c3ccccc3-c3ccccc3C(=O)O)n2)cc1` [PJL-107] had a Kd in assay [1] of 0.32 µM. Moreover, in assay [2], the FP % inhibition was 41% and the IC50 was 1.9 µM. Moreover, the inhibition at 50 µM in the assay on Arabidopsis thaliana came out at 29%.

`COc1ccc(C(=O)O)c(-c2ccccc2C(=O)Nc2nc(-c3ccc(Cl)cc3Cl)cs2)c1` [PJL-118]: the affinity in assay [1], expressed as Kd, was 2.3 µM. Moreover, in assay [2], the FP % inhibition worked out at 43% and the IC50 is 5.99 µM. Also, in the assay with Arabidopsis thaliana, the inhibition at 50 µM was 47%.

In assay [1], `COc1ccc(-c2csc(NC(=O)c3cc(C)ccc3-c3ccccc3C(=O)O)n2)cc1` [PJL-126] returned a Kd of 3 µM. In assay [2], the FP % inhibition worked out at 58% and the 50% inhibitory concentration (IC50) was found to be 2.1 µM. Besides, the inhibition at 50 µM in the assay with Arabidopsis thaliana came out at 93%.

`COc1ccc(-c2csc(NC(=O)c3ncccc3-c3ccccc3C(=O)O)n2)cc1` [PJL-127] gave a Kd in assay [1] of 7.6 µM. Further, in assay [2], the FP % inhibition stood at 38% and the IC50 came out at 15.3 µM. The inhibition at 50 µM in the assay on Arabidopsis thaliana is 100%.

`CC(C)n1nnc(-c2ccc(O)c(NC(=O)Cc3ccccc3C(=O)O)c2)n1` [PJL-208]: the Kd in assay [1] amounted to 19.8 µM. In assay [2], the FP % inhibition is 16% and the IC50 was 97 µM. Also, in the assay on Arabidopsis thaliana, the inhibition at 50 µM was found to be 0%.

In assay [1], `O=C(O)c1cccc(NC2=C(Cl)C(=O)N(c3cc(Cl)ccc3Cl)C2=O)c1` [PJL-211] gave a Kd of 11.6 µM. For the same compound, in assay [2], the FP % inhibition is on record as 17% and the IC50 is 63.9 µM. Also, the inhibition at 50 µM in the assay on Arabidopsis thaliana came to 72%.

In assay [1], `COc1ccc(NC(=O)c2ccc(NS(=O)(=O)c3cc(C(=O)O)ccc3OC)cc2)cc1` [PJS-31] yielded a Kd of 5.6 µM. In addition, in assay [2], the FP % inhibition is 11% and the IC50 worked out at 225 µM. The inhibition at 50 µM with Arabidopsis thaliana was 0%.

In assay [1], `O=C(O)c1cc2c(c(S(=O)(=O)Nc3ccc(OCc4ccccn4)c(Cl)c3)c1)CCC2` [PJS-39] returned a Kd of 7.5 µM. Moreover, in assay [2], the FP % inhibition was found to be 14% and the IC50 worked out at 72 µM. Moreover, in the assay on Arabidopsis thaliana, the inhibition at 50 µM turned out to be 2.3%.
